Reference: BindingDB's records for PubMed 7965790 (University of Nebraska, 1994)

Tests used:
[1] = biological target: T1, Alpha-2A adrenergic receptor [16-465] (Rattus norvegicus, UniProt P22909)
T1 construct: 16-465
T1 sequence (P22909 whole entry): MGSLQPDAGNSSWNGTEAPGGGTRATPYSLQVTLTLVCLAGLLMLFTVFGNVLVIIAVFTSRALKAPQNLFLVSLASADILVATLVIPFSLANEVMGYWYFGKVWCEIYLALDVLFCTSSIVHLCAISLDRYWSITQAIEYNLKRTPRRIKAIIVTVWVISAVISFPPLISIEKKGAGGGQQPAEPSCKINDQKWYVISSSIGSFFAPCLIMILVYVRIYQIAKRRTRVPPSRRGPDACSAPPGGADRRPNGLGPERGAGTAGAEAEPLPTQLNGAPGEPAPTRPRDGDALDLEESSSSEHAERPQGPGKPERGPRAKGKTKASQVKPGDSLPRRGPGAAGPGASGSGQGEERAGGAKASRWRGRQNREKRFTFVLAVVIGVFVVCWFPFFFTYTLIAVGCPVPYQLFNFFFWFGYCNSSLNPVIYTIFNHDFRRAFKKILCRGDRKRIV

[2] = biological target: T2, Alpha-2A adrenergic receptor (Bos taurus, UniProt Q28838)
T2 sequence (Q28838 whole entry): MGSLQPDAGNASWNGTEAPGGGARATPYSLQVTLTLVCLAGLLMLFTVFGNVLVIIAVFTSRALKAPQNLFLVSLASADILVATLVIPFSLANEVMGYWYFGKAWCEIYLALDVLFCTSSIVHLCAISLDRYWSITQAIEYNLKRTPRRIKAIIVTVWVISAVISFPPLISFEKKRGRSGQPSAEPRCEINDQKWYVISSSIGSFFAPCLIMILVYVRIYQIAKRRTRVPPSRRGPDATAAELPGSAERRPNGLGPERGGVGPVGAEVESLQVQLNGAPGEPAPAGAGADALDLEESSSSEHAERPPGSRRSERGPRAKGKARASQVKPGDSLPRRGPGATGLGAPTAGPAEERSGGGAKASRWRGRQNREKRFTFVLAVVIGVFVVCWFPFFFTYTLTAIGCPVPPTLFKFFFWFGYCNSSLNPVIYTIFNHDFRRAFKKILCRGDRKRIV

[3] = biological target: T3, Alpha-2A adrenergic receptor (Sus scrofa, UniProt P18871)
T3 sequence (P18871 whole entry): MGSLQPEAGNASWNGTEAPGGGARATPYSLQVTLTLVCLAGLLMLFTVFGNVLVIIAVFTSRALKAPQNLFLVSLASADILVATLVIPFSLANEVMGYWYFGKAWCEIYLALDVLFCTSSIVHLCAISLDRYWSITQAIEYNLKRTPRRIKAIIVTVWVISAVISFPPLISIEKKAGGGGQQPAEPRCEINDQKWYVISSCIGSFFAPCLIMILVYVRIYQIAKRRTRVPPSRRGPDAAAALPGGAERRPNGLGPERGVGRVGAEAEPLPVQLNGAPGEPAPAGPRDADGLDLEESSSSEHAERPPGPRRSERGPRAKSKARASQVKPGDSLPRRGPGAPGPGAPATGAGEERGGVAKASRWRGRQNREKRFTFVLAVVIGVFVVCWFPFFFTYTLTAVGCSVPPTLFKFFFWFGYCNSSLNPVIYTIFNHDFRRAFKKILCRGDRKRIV

Row | Ki [1] [nM] | Ki [2] [nM] | Ki [3] [nM] | Structure (SMILES)
1 | 749 | 352 | 365 | COc1ccccc1N1CCN(CCC2C(=O)c3ccccc3C(C)(C)C2=O)CC1 (centres undefined) [NSC_122211]
2 | – | 884 | 64 | CN(C)CCCN1c2ccccc2Sc2ccc(Cl)cc21 [[3-(2-Chloro-phenothiazin-10-yl)-propyl]-dimethyl-amine(Chlorpromazine)]
3 | 289 | 653 | 10 | COC(=O)C1=COC(C)C2CN3CCc4c([nH]c5ccccc45)C3CC12 (centres undefined) [Ajmalicine]
4 | – | 1370 | 1160 | COc1cc2nc(N3CCN(C(=O)c4ccco4)CC3)nc(N)c2cc1OC [[3H]-Minipress]
5 | – | 35 | 3.19 | Cc1cc(C(C)(C)C)c(O)c(C)c1CC1=NCCN1 [SMR000059324]
6 | 1210 | 1830 | – | COC(=O)C1=CO[C@@H](C)[C@@H]2CN3CCc4c([nH]c5ccccc45)[C@H]3C[C@H]12 [AKUAMMIGINE]
7 | 46 | 13.2 | 0.95 | COc1cccc(OC)c1OCCNCC1Oc2ccccc2OC1c1ccccc1 (centres undefined) [NSC_185453]
8 | – | 1090 | 371 | NCC(O)c1ccc(O)c(O)c1 (stereo not drawn) [Noradrenaline,(+)]
9 | – | – | 2.87 | Cc1ccc(N(CC2=NCCN2)c2cccc(O)c2)cc1 [SMR000059054]

Row | Structure (SMILES) | Ki [1] [nM] | Ki [2] [nM] | Ki [3] [nM]
10 | O=C1NCN(c2ccccc2)C12CCN(CC1COc3ccccc3O1)CC2 (centres undefined) [8-(2,3-Dihydro-benzo[1,4]dioxin-2-ylmethyl)-1-phenyl-1,3,8-triaza-spiro[4.5]decan-4-one] | 70 | 10.5 | 3.36
11 | CC(C)=CCOc1ccc(Cl)c2c1CCN(C)CC2 [SK&F-104078] | 248 | 153 | 35
12 | CN1C[C@H](Cn2ccnc2-c2ccccc2)C[C@@H]2c3cccc4[nH]c(Br)c(c34)C[C@H]21 [BAM-1303] | 35 | 149 | 0.52
